Results: ChEMBL document CHEMBL2010711, “Synthesis and comparative evaluation of 4-oxa- and 4-aza-podophyllotoxins as antiproliferative microtubule destabilizing agents” (Bioorg Med Chem Lett, 2012)

Key:
Type in all cases: functional
CCRF-CEM = assay: Cytotoxicity against human CCRF-CEM cells after 48 hrs by trypan blue dye exclusion assay
HL-60(TB) = assay: Cytotoxicity against human HL-60(TB) cells after 48 hrs by trypan blue dye exclusion assay; settings: HL-60, 48 h
K562 = assay: Cytotoxicity against human K562 cells after 48 hrs by trypan blue dye exclusion assay; settings: K562, 48 h
MOLT-4 = assay: Cytotoxicity against human MOLT4 cells after 48 hrs by trypan blue dye exclusion assay; settings: MOLT-4, 48 h
RPMI-8226 = assay: Cytotoxicity against human RPMI8226 cells after 48 hrs by trypan blue dye exclusion assay; settings: RPMI-8226, 48 h
SR = assay: Cytotoxicity against human SR cells after 48 hrs by trypan blue dye exclusion assay
A549 = assay: Cytotoxicity against human A549 cells after 48 hrs by trypan blue dye exclusion assay; settings: A549, 48 h
EKVX = assay: Cytotoxicity against human EKVX cells after 48 hrs by trypan blue dye exclusion assay
HOP-62 = assay: Cytotoxicity against human HOP62 cells after 48 hrs by trypan blue dye exclusion assay; settings: HOP-62, 48 h
HOP-92 = assay: Cytotoxicity against human HOP92 cells after 48 hrs by trypan blue dye exclusion assay; settings: HOP-92, 48 h
NCI-H226 = assay: Cytotoxicity against human NCI-H226 cells after 48 hrs by trypan blue dye exclusion assay; settings: NCI-H226, 48 h
NCI-H23 = assay: Cytotoxicity against human NCI-H23 cells after 48 hrs by trypan blue dye exclusion assay; settings: NCI-H23, 48 h
NCI-H322M = assay: Cytotoxicity against human NCI-H322M cells after 48 hrs by trypan blue dye exclusion assay
NCI-H460 = assay: Cytotoxicity against human NCI-H460 cells after 48 hrs by trypan blue dye exclusion assay; settings: NCI-H460, 48 h
NCI-H522 = assay: Cytotoxicity against human NCI-H522 cells after 48 hrs by trypan blue dye exclusion assay; settings: NCI-H522, 48 h
COLO 205 = assay: Cytotoxicity against human COLO205 cells after 48 hrs by trypan blue dye exclusion assay; settings: COLO 205, 48 h
HCC 2998 = assay: Cytotoxicity against human HCC2998 cells after 48 hrs by trypan blue dye exclusion assay; settings: HCC 2998, 48 h
HCT-116 = assay: Cytotoxicity against human HCT116 cells after 48 hrs by trypan blue dye exclusion assay; settings: HCT-116, 48 h
HCT-15 = assay: Cytotoxicity against human HCT15 cells after 48 hrs by trypan blue dye exclusion assay; settings: HCT-15, 48 h
HT-29 = assay: Cytotoxicity against human HT-29 cells after 48 hrs by trypan blue dye exclusion assay; settings: HT-29, 48 h
KM12 = assay: Cytotoxicity against human KM12 cells after 48 hrs by trypan blue dye exclusion assay; settings: KM12, 48 h
SW-620 = assay: Cytotoxicity against human SW620 cells after 48 hrs by trypan blue dye exclusion assay; settings: SW-620, 48 h
SF-268 = assay: Cytotoxicity against human SF268 cells after 48 hrs by trypan blue dye exclusion assay; settings: SF-268, 48 h
SF-295 = assay: Cytotoxicity against human SF295 cells after 48 hrs by trypan blue dye exclusion assay; settings: SF-295, 48 h
SF-539 = assay: Cytotoxicity against human SF539 cells after 48 hrs by trypan blue dye exclusion assay; settings: SF-539, 48 h
SNB-19 = assay: Cytotoxicity against human SNB19 cells after 48 hrs by trypan blue dye exclusion assay; settings: SNB-19, 48 h
SNB-75 = assay: Cytotoxicity against human SNB75 cells after 48 hrs by trypan blue dye exclusion assay; settings: SNB-75, 48 h
U-251 = assay: Cytotoxicity against human U251 cells after 48 hrs by trypan blue dye exclusion assay; settings: U-251, 48 h
LOX IMVI = assay: Cytotoxicity against human LOXIMVI cells after 48 hrs by trypan blue dye exclusion assay
Malme-3M = assay: Cytotoxicity against human MALME-3M cells after 48 hrs by trypan blue dye exclusion assay
M14 = assay: Cytotoxicity against human M14 cells after 48 hrs by trypan blue dye exclusion assay; settings: M14, 48 h

COc1ccc2c(c1)NC1=C(C(=O)OC1)C2c1cc(OC)c2c(c1)OCO2 (configuration not stated)
GI50 (CCRF-CEM): < 10 nM
GI50 (HL-60(TB)): 20.9 nM
GI50 (K562): < 10 nM
GI50 (MOLT-4): 12.9 nM
GI50 (RPMI-8226): < 10 nM
GI50 (SR): < 10 nM
GI50 (A549): 14.6 nM
GI50 (EKVX): < 10 nM
GI50 (HOP-62): 12.1 nM
GI50 (HOP-92): 86.2 nM
GI50 (NCI-H226): 10.1 nM
GI50 (NCI-H23): 20.2 nM
GI50 (NCI-H322M): 58.3 nM
GI50 (NCI-H460): 22.5 nM
GI50 (NCI-H522): < 10 nM
GI50 (COLO 205): < 10 nM
TGI (COLO 205): 26.8 nM
GI50 (HCC 2998): 23.3 nM
GI50 (HCT-116): < 10 nM
GI50 (HCT-15): 28.3 nM
GI50 (HT-29): < 10 nM
GI50 (KM12): < 10 nM
GI50 (SW-620): < 10 nM
GI50 (SF-268): < 10 nM
GI50 (SF-295): < 10 nM
GI50 (SF-539): < 10 nM
GI50 (SNB-19): 49.9 nM
GI50 (SNB-75): 42.6 nM
GI50 (U-251): 16.8 nM
GI50 (LOX IMVI): < 10 nM
GI50 (Malme-3M): > 100000 nM
GI50 (M14): 13.2 nM
